Data as given in ChEMBL document CHEMBL5465560, “Selectivity Literature for EUbOPEN Chemogenomic Library” (2024).

Legend:
[1] = target: Protein kinase C delta type (Homo sapiens) (UniProt Q05655); assay: Selectivity interaction (KinomeScan (DiscoverX)) EUB0000666a PRKCD; settings: at 10 µM
[2] = target: T1, Phosphatidylinositol 4,5-bisphosphate 3-kinase catalytic subunit delta isoform (Homo sapiens) (UniProt O00329); assay: Selectivity interaction (Kinase panel (KiNativ target engagement assay in Jurkat cells)) EUB0001635a PIK3CD; type: cell-based; settings: Selectivity number of off-targets 0.0, Selectivity number of targets 233.0, Source Knowledge https://www.sciencedirect.com/science/article/pii/S2451945619300674?via%3Dihub, at 1 µM
T1 sequence (whole entry): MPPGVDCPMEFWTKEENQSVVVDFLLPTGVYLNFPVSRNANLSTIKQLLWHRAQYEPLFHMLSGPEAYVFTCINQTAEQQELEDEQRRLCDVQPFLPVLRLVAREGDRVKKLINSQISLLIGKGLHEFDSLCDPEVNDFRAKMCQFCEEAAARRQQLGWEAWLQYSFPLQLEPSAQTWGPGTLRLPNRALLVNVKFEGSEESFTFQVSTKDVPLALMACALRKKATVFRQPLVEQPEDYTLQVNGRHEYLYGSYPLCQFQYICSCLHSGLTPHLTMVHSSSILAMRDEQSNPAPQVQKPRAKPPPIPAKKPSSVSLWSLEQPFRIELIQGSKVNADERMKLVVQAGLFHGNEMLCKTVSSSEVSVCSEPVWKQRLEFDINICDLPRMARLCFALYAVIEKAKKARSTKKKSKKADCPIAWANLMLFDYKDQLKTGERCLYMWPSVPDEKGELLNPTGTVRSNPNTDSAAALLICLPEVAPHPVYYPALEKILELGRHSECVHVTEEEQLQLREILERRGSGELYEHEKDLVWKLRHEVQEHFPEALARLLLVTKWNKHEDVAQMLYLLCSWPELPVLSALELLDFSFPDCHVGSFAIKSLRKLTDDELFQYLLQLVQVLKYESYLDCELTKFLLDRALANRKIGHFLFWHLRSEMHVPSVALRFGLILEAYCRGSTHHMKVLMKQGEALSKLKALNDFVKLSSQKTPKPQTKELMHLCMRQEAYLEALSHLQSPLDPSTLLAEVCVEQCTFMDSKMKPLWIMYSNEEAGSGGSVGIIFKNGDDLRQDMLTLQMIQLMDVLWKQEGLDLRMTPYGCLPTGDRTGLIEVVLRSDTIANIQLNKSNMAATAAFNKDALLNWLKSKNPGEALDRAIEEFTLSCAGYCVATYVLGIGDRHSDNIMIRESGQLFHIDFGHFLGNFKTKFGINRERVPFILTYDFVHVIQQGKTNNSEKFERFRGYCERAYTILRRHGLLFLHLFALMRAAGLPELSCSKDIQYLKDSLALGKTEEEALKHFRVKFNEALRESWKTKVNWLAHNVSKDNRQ

[3] = target: Calcium/calmodulin-dependent protein kinase type 1D (Homo sapiens) (UniProt Q8IU85); assay: Selectivity interaction (ActivX KiNativ screen (kinase selectivity in THP-1 cell lysates)) EUB0000639a CAMK1D; type: subcellular; settings: lysate, at 0.01 µM
[4] = target: Serine/threonine-protein kinase 35 (Homo sapiens) (UniProt Q8TDR2); assay: Selectivity interaction (Ambit KINOMEscan and KiNATiv profiling in Jurkat cells) EUB0000090b STK35; type: cell-based; settings: at 1 µM
[5] = target: T2, Histone-lysine N-methyltransferase EHMT1 (Homo sapiens) (UniProt Q9H9B1); assay: Selectivity interaction (Methyltransferase screen (Scintillation proximity assays)) EUB0000255b EHMT1
T2 sequence (whole entry): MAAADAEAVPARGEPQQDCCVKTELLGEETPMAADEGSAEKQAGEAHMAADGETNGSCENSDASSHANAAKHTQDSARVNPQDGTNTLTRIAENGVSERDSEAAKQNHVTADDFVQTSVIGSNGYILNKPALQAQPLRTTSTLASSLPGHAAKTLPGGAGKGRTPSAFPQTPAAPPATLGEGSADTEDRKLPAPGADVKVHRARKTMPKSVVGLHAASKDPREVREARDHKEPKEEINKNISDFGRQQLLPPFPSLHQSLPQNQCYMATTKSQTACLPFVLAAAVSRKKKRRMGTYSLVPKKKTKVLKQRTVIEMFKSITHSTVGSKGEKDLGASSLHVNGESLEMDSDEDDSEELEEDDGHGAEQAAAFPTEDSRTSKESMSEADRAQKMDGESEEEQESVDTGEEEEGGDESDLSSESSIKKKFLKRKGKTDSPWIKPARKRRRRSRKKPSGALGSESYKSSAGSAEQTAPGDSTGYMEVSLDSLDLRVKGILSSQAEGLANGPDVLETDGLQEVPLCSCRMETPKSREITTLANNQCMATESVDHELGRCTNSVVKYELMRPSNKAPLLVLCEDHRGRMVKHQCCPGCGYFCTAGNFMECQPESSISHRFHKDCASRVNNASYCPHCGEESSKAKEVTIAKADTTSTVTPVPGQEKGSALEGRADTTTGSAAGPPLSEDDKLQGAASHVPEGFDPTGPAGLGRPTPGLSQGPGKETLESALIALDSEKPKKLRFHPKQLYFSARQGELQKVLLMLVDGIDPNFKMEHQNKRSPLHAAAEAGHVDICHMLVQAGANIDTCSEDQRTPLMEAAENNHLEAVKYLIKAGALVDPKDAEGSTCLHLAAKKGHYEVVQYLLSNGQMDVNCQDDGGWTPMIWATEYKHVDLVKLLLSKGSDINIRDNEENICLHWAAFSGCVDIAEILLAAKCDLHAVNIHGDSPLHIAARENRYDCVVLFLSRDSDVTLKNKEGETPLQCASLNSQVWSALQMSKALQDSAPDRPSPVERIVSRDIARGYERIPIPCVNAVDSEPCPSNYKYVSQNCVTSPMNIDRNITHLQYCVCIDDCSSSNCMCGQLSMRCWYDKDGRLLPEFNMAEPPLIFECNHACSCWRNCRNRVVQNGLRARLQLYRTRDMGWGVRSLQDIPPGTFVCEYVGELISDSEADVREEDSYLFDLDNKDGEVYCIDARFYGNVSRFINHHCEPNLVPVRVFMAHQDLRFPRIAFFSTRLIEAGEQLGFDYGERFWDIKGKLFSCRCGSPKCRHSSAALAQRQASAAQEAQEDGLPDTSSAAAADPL

Sequence of Serine/threonine-protein kinase 35 (Homo sapiens) (Q8TDR2 whole entry): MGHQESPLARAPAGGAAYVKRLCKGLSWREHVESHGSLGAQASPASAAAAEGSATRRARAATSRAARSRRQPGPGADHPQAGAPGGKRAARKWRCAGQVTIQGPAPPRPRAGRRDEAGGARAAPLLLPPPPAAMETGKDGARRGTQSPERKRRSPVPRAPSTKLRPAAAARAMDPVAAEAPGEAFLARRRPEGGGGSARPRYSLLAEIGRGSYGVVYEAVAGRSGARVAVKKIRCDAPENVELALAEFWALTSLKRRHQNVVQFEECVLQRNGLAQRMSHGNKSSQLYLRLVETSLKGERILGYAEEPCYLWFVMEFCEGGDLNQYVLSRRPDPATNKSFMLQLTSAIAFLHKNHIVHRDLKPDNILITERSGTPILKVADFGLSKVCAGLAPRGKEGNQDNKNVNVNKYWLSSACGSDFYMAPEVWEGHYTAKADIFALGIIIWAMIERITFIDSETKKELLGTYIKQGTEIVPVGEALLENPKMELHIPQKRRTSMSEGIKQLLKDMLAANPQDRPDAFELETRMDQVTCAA
Sequence of Protein kinase C delta type (Homo sapiens) (Q05655 whole entry, looked up, canonical isoform): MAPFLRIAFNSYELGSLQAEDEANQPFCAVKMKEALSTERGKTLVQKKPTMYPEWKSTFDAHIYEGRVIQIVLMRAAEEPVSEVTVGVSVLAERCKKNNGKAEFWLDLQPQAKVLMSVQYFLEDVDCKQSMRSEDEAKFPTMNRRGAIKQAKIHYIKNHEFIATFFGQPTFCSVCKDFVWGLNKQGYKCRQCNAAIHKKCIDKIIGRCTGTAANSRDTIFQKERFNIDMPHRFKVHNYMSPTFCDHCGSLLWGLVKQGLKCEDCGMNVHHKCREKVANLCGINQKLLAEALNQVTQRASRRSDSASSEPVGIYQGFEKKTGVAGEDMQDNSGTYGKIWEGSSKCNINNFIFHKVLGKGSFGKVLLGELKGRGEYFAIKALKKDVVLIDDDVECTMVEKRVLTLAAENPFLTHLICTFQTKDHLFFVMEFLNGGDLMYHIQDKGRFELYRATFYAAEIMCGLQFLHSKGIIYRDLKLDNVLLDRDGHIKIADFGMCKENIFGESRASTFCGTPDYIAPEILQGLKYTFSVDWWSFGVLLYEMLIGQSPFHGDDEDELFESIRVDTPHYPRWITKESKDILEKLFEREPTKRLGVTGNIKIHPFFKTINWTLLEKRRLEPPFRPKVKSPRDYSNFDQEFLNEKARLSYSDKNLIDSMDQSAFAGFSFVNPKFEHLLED
Sequence of Calcium/calmodulin-dependent protein kinase type 1D (Homo sapiens) (Q8IU85 whole entry, looked up): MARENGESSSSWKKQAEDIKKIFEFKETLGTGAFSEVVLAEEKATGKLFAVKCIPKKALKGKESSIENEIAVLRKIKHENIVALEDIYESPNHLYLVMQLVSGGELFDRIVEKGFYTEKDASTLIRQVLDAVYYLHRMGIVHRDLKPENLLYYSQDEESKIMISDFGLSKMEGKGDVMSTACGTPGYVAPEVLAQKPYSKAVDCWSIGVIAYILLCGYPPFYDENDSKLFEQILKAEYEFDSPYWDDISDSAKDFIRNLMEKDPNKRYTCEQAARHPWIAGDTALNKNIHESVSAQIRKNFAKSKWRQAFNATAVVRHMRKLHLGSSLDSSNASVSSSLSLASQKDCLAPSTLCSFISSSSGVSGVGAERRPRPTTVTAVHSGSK

`O=C(NOC[C@H](O)CO)c1ccc(F)c(F)c1Nc1ccc(I)cc1F` gave a % of control [1] of 100%.

`C=CC(=O)Nc1ccc(C(=O)Nc2[nH]nc3c2CN(C(=O)N[C@H](CN(C)C)c2ccccc2)C3(C)C)cc1` was tested, and the % of engagement [2] was -6.8%.

Molecule `CC[C@@H]1[C@H](F)C(=O)N[C@@H]1COc1nccc2cc(C(N)=O)c(OC)cc12` [ZIMLOVISERTIB] has a % of inhibition [3] of -1.8%.

Work on `CN(C)C/C=C/C(=O)Nc1ccc(C(=O)N2CCCC(Nc3ncc(Cl)c(-c4c[nH]c5ccccc45)n3)C2)cc1` (stereo unspecified) yielded a % of control [4] of 95%.

In the case of `COCCN1CCC(c2cc(CN(C)C(=O)c3cccc(Oc4ccccc4)c3)ccn2)CC1`, the % activity ([5]; at 1 µM) is reported as > 95% and the % activity ([5]; at 10 µM) is reported as > 90%.
